Columns and labels:
[1] = biological target: T1, 17,20beta-P membrane receptor (ovarian membrane progestin receptor, mPR); experiment: competition with [3H]-17, […]β-P, filtration assay; format: binding, Salvelinus alpinus; conditions: 7 nM [3H]-17,20β-P, ovarian membranes, pH 7.4, +4°C, 30 min; read-out: Concentration (nM) causing 50% displacement
T1 construct: gene paqr7; native receptor in crude ovarian plasma membrane fraction (20,000 g pellet)

[2] = biological target: T1, 17,20beta-P membrane receptor (ovarian membrane progestin receptor, mPR); experiment: radioligand saturation, filtration assay, Scatchard; format: binding, Salvelinus alpinus; conditions: labelled compound ([3H]-17,20β-P); ovarian membranes, pH 7.4, +4°C, 30 min

Row | Molecule | IC50 [1] [nM] | Kd [2] [nM]
1 | C[C@]12CC[C@H]3[C@@H](CCC4=CC(=O)CC[C@@]43C)[C@@H]1CC[C@@H]2C(=O)CO [11-DOC, 11-deoxycorticosterone] | 132 | –
2 | C[C@@H](O)[C@@]1(O)CC[C@H]2[C@@H]3CCC4=CC(=O)CC[C@]4(C)[C@H]3CC[C@@]21C [17,20β-P, 17,20beta-dihydroxy-4-pregnen-3-one] | 1.25 | 13.8 ± 1.1
3 | CC(=O)[C@@]1(O)CC[C@H]2[C@@H]3CCC4=CC(=O)CC[C@]4(C)[C@H]3CC[C@@]21C [17α-OH-P, 17α-hydroxyprogesterone] | 69.3 | –
4 | C[C@]12CCC(=O)C=C1CC[C@@H]1[C@@H]2CC[C@@]2(C)[C@H]1CC[C@]2(O)[C@H](O)CO [20β-S, 17, 20β, 21-trihydroxy-4-pregnen-3-one] | 145 | –
5 | C[C@]12CCC(=O)C=C1CC[C@@H]1[C@@H]2CC[C@@]2(C)[C@H]1CC[C@]2(O)C(=O)CO [DC, 11-deoxycortisol] | 207 | –
6 | C[C@]12CC[C@@H]3c4ccc(O)cc4CC[C@H]3[C@@H]1CC[C@@H]2O [E2, 17β-estradiol] | 37.9 | –
7 | C[C@]12CCC(=O)C=C1CC[C@@H]1[C@@H]2[C@@H](O)C[C@@]2(C)[C@H]1CC[C@]2(O)C(=O)CO [F, cortisol] | 14400 | –
8 | CC(C)C(=O)Nc1ccc([N+](=O)[O-])c(C(F)(F)F)c1 [Flutamide] | 256 | –
9 | CC(=O)[C@H]1CC[C@H]2[C@@H]3CCC4=CC(=O)CC[C@]4(C)[C@H]3CC[C@]12C [P4, progesterone] | 52.6 | –
10 | C[C@]12CC[C@H]3[C@@H](CCC4=CC(=O)CC[C@@]43C)[C@@H]1CC[C@@H]2O [T, testosterone] | 18300 | –
11 | CN(C)c1ccc([C@H]2C[C@]3(C)[C@@H](CC[C@]3(O)CCCO)[C@@H]3CCC4=CC(=O)CCC4=C32)cc1 [ZK 98299] | 12900 | –
12 | Clc1ccc(C(c2ccccc2Cl)C(Cl)Cl)cc1 (stereo not drawn) [o,p'-DDD] | 549 | –
13 | Clc1ccc(C(c2ccccc2Cl)C(Cl)(Cl)Cl)cc1 (stereo not drawn) [o,p'-DDT] | 378 | –
14 | ZK 112992 | 1180 | –

— article PMC1298333, “Biochemical characterization of the Arctic char (Salvelinus alpinus) ovarian progestin membrane receptor” (Reproductive biology and endocrinology : RB&E, 2005)
